From US20020115059A1, “Drug screening system” (priority 2000, published 2002)

System: mouse ES cells
Assay: In vitro hepatic differentiation of ES cells (EBs): marker mRNA expression by RT-PCR / real-time PCR
Format: cell-based
Conditions: EBs on collagen coated dishes, factors of individual stages, Day 18
Experimental: Cell Culture—The ES cell lines R1 (129Sv strain), W9.5 (129Sv), and SEK1 null (established from W9.5) (Ganiatsas et al., (1998) Proc. Natl. Acad. Sci. USA 95, 6881-6) were maintained undifferentiated in gelatin-coated dishes in DMEM (GIBCO BRL, Grand Island, N.Y.) containing 15% fetal bovine serum (Atlanta biologicals, Norcross, Ga.), 2 mM L-glutamine, 100 units/ml penicilin, 100 μg/ml streptomycin, 25 mM Hepes (GIBCO BRL), 300 μM monothioglycerol (Sigma, St. Louis, Mo.), and 250 unit/ml recombinant mouse LIF (ESGRO, CHEMICON, Temecula, Calif.). To induce differentiation, ES cells were suspended in IMDM containing 2 mM L-glutamine, 100 units/ml penicillin, 100 μg/ml streptomycin (GIBCO BRL), 20% fetal bovine serum (Atlanta biologicals) and 300 μM monothioglycerol (Sigma). Cells were cultured for 2 days by the hanging-drop method (1×10^3 ES cells per 30 μl in each drop) (Metzger et al., (1994) J. Cell. Biol. 126, 701-11). EBs in hanging drops were transferred to suspension culture in 100-mm petri dishes and cultured for an additional 3 days. […]
For each gene, the DNA primers were originated from different exons to ensure that the PCR product represented the specific mRNA species and not genomic DNA. Relative quantitation of albumin gene was performed by ABIPRISM5700 sequence detection system and SYBR green PCR master mix (PE Biosystems, Foster City, Calif.). […]

## hepatocyte growth factor [HGF]
  G6P expression (FIG. 5a): critical
